In data set [1] the test system is tyrosinase. Further details: method as in Deri et al. (2016) [15]. The note with it: ref Deri et al. (2016) [15], cited from earlier work.
Data set [2] deals with T1, tyrosinase (Agaricus bisporus, UniProt C7FF04). The experiment in a line: Enzyme kinetic analysis of tyrosinase with L-tyrosine (Lineweaver-Burk, Dixon plots). The note with it: substrate L-tyrosine. Type of data set: biochemical. The method, then:
(§1) Enzyme kinetics were analyzed using Lineweaver–Burk and Dixon reciprocal plots of the reaction rate and substrate concentration to evaluate the effect of the sample on the affinity of the substrate and enzyme. The tyrosinase concentration was kept constant at 200 U/mL, whereas the substrate (L-tyrosine/L-DOPA) concentration varied between 0.5 and 2.0 mM. The reaction was similar to the anti-tyrosinase assay described above; 100 µL of sample solution was added, followed by 100 µL of tyrosinase (200 units/mL) after incubation at 25 °C. The substrate was then added to the wells and mixed thoroughly, and kinetic measurements of the solution were performed at a wavelength of 475 nm.

The test system of another data set is B16F10 cells. Description: Cellular tyrosinase activity (L-DOPA oxidation) in α-MSH-induced cells. Type of data set: cell-based, Murine. The note with it: for Intracellular tyrosinase activity: α-MSH-induced B16F10 cells. The method, then: Tyrosinase activity was estimated by measuring the rate of L-DOPA oxidation. […] The cells were washed with cold PBS, and cell lysis buffer was added for lysis at 4 °C for 1 h on ice and centrifuged at 13,000 rpm for 20 min at […] to obtain supernatants. Protein concentration was quantified at 50 µg using a BCA protein assay kit. […] Absorbance was measured at 490 nm using a microplate reader.

The target of data set [3] is T1, tyrosinase. The experiment in a line: Enzyme kinetic analysis of tyrosinase with L-DOPA (Lineweaver-Burk, Dixon plots). Type of data set: biochemical. The note with it: substrate L-DOPA. The method, then:
as §1

Data set [4] relates to B16F10 melanoma cells. The experiment in a line: Cell viability, CCK-8 assay. Type of data set: cell-based, Murine. Conditions: 0.1–5 μM, 72 h. The method, then: Murine B16F10 melanoma cells (Korean Cell Line Bank, Seoul, Republic of Korea) were cultured in DMEM containing 10% FBS and 1% penicillin-streptomycin at 37 °C in the humidified atmosphere of a 5% CO2 incubator. The cells were cultured until 100% confluent for all experiments.
Cell viability was assessed using the CCK-8 kit. Cells were incubated in 96-well plates at a density of approximately 3 × 10^3 cells/well. After 24 h incubation, a kuraridin concentration (0.1–10 µM) of samples or medium was added to B16F10 cells at 72 h of incubation. Absorbance was monitored at 450 nm using a microplate reader (Synergy H(1), Biotek, VT, USA).
Background: Tetrazolium dyes change colour on reduction, which living cells bring about.

For data set [5], the system named is B16F10 melanoma cells. The experiment in a line: Cellular melanin content (extracellular and intracellular) in α-MSH-induced cells. Type of data set: cell-based, Murine. How it is done:
B16F10 melanoma cells (7.4 × 10⁴ cells/well) were seeded in a 6-well plate. […] The extracellular melanin content was measured by direct estimation of the absorbance of the cell-free culture medium at 405 nm. For the measurement of intracellular melanin content, cell pellets were dissolved in 1 N NaOH at 95 °C for 1 h. The absorbance of the resulting solution was measured at 405 nm using a microplate reader [Synergy H(1)].

Where [6] appears, read: α-MSH-induced B16F10 cells, 0.1–5 μM, dose-dependent.
The mark [7] stands for this setting: B16F10 cells, α-MSH stimulation 0.1 μM, 72 h, control = 100%.

T1 sequence (G1K3P4 entry or part of it): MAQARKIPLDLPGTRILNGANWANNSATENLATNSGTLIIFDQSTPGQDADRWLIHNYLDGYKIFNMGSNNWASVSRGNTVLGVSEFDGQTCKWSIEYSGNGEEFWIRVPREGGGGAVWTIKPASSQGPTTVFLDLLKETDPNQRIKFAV
T1 sequence (C7FF04 2-392): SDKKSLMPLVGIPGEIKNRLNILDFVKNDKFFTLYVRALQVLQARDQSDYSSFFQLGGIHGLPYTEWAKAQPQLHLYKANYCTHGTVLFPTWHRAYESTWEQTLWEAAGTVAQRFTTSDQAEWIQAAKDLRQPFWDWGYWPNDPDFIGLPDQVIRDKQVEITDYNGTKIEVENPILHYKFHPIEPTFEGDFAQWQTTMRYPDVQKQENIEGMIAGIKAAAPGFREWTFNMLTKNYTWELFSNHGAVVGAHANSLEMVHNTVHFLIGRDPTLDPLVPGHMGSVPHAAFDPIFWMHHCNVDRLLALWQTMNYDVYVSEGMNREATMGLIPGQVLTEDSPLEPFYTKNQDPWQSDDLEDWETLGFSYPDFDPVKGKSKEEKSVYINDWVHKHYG

Regarding `O=c1cc(CO)occ1O` [Kojic acid], the “Inhibition Type L-DOPA” value in the data set with tyrosinase [1] (substrate L-DOPA) is recorded as “Mixed ^2”. Besides, the “Inhibition Type L-Tyrosine” value in the data set on tyrosinase [1] (substrate L-tyrosine) is recorded as “Mixed ^2”.

As to `C=C(C)[C@H](CC=C(C)C)Cc1c(O)cc(OC)c(C(=O)/C=C/c2ccc(O)cc2O)c1O` [Kuraridin, kuraridin], the “Inhibition Type L-Tyrosine” value on tyrosinase [2] is “Non-competitive”. The Intracellular tyrosinase activity result in the data set on B16F10 cells (all tested concentrations (0.1–5 μM), vs α-MSH only, p < 0.001) is reported as “significantly suppressed tyrosinase activity”; in the data set on B16F10 cells (lowest concentration 0.1 μM), “reached control levels”. The “Inhibition Type L-DOPA” value is given as “Competitive” at tyrosinase [3] and “competitive inhibition” on tyrosinase [3] (listed as kuraridin). In addition, in the data set on B16F10 melanoma cells [4], the “Cytotoxicity (cell viability)” value was “without cytotoxicity”. In the data set with B16F10 melanoma cells [5] (setting [6]), the Extracellular melanin production result is “significantly attenuated”. In addition, the Intracellular melanin production result with B16F10 melanoma cells [5] (setting [6]) is listed as “significantly attenuated”. Also, the “Intracellular melanin content lower than the untreated control” value in the data set on B16F10 melanoma cells [5] (α-MSH-treated B16F10 cells, 1 µM) is on record as 15%.

On to `C=C(C)[C@H](CCC(C)(C)O)Cc1c(O)cc(OC)c2c1O[C@H](c1ccc(O)cc1O)CC2=O` [Kurarinol, kurarinol], for which, on tyrosinase [2], the “Inhibition Type L-Tyrosine” value is given as “Non-competitive”.

As to `C=C(C)[C@H](CC=C(C)C)Cc1c(O)cc(O)c2c1O[C@H](c1ccccc1O)CC2=O` [Kushenol A, kushenol A], the “Inhibition Type L-Tyrosine” value on tyrosinase [2] is reported as “Non-competitive”.

For “alpha-melanocyte-stimulating hormone [α-MSH, reference compound]”, the “Increase of intracellular tyrosinase activity compared with control group” value in the data set on B16F10 cells (B16F10 cells, α-MSH 100 nM, 72 h) is recorded as 1.8 fold. Besides, in the data set with B16F10 melanoma cells [5] (setting [7]), the Extracellular melanin content entry is listed as “approximately 132%” and the Intracellular melanin content is recorded as around 127%.

These data come from PMC11509080, “Discovery of Kuraridin as a Potential Natural Anti-Melanogenic Agent: Focusing on Specific Target Genes and Multidirectional Signaling Pathways” (International Journal of Molecular Sciences, 2024).
